Data set [1] concerns SKOV-3 ovarian cancer cells. The data set is described as follows: Cytotoxicity under dark conditions. It is filed as cell-based, human. The conditions noted are these: up to 1.0 mg/mL, 2 hrs exposure plus 22 hrs. An excerpt: K9TCC-Pu-In and 5637 bladder cancer cell lines and SKOV-3 ovarian cancer cell lines were used to evaluate the photosensitizing function of nano-porphyrins. […] 5-aminolevulinic acid (5-ALA), the traditional photodynamic diagnosis/therapy agent, was used as a control. In another experiments, DOX loaded nanoporphyrins were used to treat the cancer cells followed by light exposure. […]

Data set [2] concerns SKOV-3 ovarian cancer xenograft. The data set is described as follows: In vivo therapeutic study (PTT/PDT with or without DOX). As to conditions: DOX 2.5 mg/kg, NP 25 mg/kg, light 0.25 W cm^−2 for 2 min; versus PBS control. Set-up: species or system nude mice. As for the experimental part:
Transgenic mice with mammary cancer (FVB/n Tg(MMTV-PyVmT) and nude mice bearing SKOV-3 ovarian cancer xenograft were used for the in vivo therapeutic studies. When tumor volumes reached 4-5 mm in transgenic mice, crosslinked NPs with and without 2.5 mg/kg DOX were injected via tail vein once per week for 3 doses. After 24 hrs, tumors were illuminated with a diode laser system (Applied Optronics, Newport, Conn.) at 690 nm under general anaesthesia. […] Tumor temperatures were recorded with an infrared camera (Flir). Intratumoral ROS production after irradiation was measured using 2′,7′-dichlorofluorescin diacetate (DCF) mixed with 100 μL of tissue lysates derived from tumors treated with NPs and PBS. In some cases, the blood of the mice was drawn and the ROS and heat production in blood after irradiation were measured at predetermined time points. The hemolysis was also followed. Tumor volume was measured twice a week and mice were sacrificed once tumor size reached 1000 mm^3. Tumors were harvested for histopathological evaluation 24 hours post-irradiation. The SKOV-3 ovarian cancer xenograft model was established by injecting one million cells subcutaneously at lower flank area. […] Tumor sizes and body weight were measured twice a week, while mice were monitored daily for potential signs of toxicity. […]

Take pyropheophorbide-a [free Por]: the “cytotoxicity without light irradiation” value in data set [1] was “significant cytoxicity”.

Consider `COc1cccc2c1C(=O)c1c(O)c3c(c(O)c1C2=O)C[C@@](O)(C(=O)CO)C[C@@H]3O[C@H]1C[C@H](N)[C@H](O)[C@H](C)O1` [free DOX, doxorubicin], for which, in data set [2], the tumor growth entry is given as “slower tumor growth”.

The values are drawn from patent US11219692B2, “Porphyrin modified telodendrimers” (THE REGENTS OF THE UNIVERSITY OF CALIFORNIA, priority 2012, dated 2022).
